Laboratory results published in patent publication US11473151B2, “Diagnostic and therapeutic methods for cancer” (Genentech, Inc., priority 2017, dated 2022).
Entries after “also recorded” stand apart in the source; their conditions may differ.

Test system: metastatic urothelial carcinoma (mUC) patients
Assay: IMvigor210 single-arm phase II study of atezolizumab: response (RECIST v1.1) and overall survival
Type: in vivo, human
Experimental: Samples for this analysis were collected from IMvigor210, which was a single-arm phase II study investigating atezolizumab (1200 mg every 3 weeks (q3w)) in metastatic urothelial carcinoma (mUC) patients (Clinical Trial Identifier: NCT02108652). The primary endpoint of the trial was to achieve a partial response (PR) rate of over 10% (Response Evaluation Criteria In Solid Tumors (RECIST) v1.1). Patients who had failed previous platinum-based chemotherapy or previously untreated patients who were not eligible for platinum-based chemotherapy were eligible. The primary endpoint was met for both previously treated and untreated populations. It was a requirement for all patients to have tumor tissue taken in the 2 years prior to study entry. The tissues were initially used for PD-L1 analysis (SP142 antibody using the Ventana platform). PD-L1 positivity was defined as more that 5% of cells staining in the immune component of the tumor tissue. Additional tissue was used for exploratory analysis. All patients had measurable disease at baseline facilitating response assessment. RECIST v1.1 was used to assess response to therapy. Cross-sectional imaging was performed every 6 weeks. All patients gave […] for this analysis.
For investigation of the clinical activity of PD-L1 blockade with atezolizumab, 429 patients with advanced mUC were enrolled in a phase 2, single arm clinical trial (IMvigor210; NCT02108652). Objective response rate was assessed per RECIST v1.1 and served as a trial endpoint. […] Assessment of the association of PD-L1 expression on tumor-infiltrating immune cells (IC) on baseline tumors with response (objective response rate) was a co-primary endpoint. PD-L1 IC status was defined by the percentage of PD-L1-positive immune cells in the tumor microenvironment (TME): IC0 (<1%), IC1 (≥1% but <5%) and IC2+(≥5%).

Substance: atezolizumab: anti-PD-L1 antibody (Genentech), CAS Registry Number 1422185-06-5, also known as MPDL3280A
- primary endpoint: partial response (PR) rate of over 10% (RECIST v1.1) (1200 mg q3w, previously treated and untreated mUC populations): met
- response rate (Lund genomically unstable (GU) subtype): 47.2%
- overall survival (OS) benefit (high PD-L1 IC scores (IC2/3) relative to IC0/1): Improved OS benefit
- response (high TGF-β 2-gene signature (TGFB1, TGFBR2)): lack of response
- overall survival (OS) benefit (high TMB relative to low TMB, median TMB as cutoff): improved OS benefit
- response rate (other Lund subtypes): 17.6%
- overall survival (OS) (patients with both high TMB and high PD-L1 IC scores): Improved OS
- complete response (CR) rate (tumors with high PD-L1 expression on IC (IC2+) versus other IC levels): significantly higher complete response (CR) rate; also recorded: highest CR rate
